Tests used:
Format in all cases: cell-based, human
[1] = tested on: canonical and non-canonical CSF1R transcripts; test: RT-PCR of canonical and non-canonical CSF1R transcripts in Reh and Namalwa cells; settings: single agent
Procedure: FIG. 7. Analysis of CSF1R LTR DNA methylation and CBFA2T3 expression. Expression of the transcriptional corepressor CBFA2T3 is lost in HRS cells. (A) Activation of the non-canonical CSF1R transcripts following treatment with TSA and/or 5-aza-dC. The non-HRS cell lines Reh and Namalwa were left untreated or treated with 5-aza-dC, TSA, or 5-aza-dC in combination with TSA. The expression of canonical and non-canonical CSF1R transcripts was analyzed by RT-PCR. The analysis of KM-H2 cells and of GAPDH expression were used as controls. (7A) Analysis of canonical and noncanonical CSF1R transcripts following treatment of Reh and Namalwa cells with TSA and/or 5-aza-dC. […] The expression of both canonical (+720 to +1,325) and noncanonical (−5,090 to +148 and −6152 to −143) CSF1R transcripts was analyzed by RT-PCR. […] GAPDH expression was analyzed as a control. […] (B) Various cell lines and primary CD19^+ human tonsilar B cells were analyzed for expression of CBFA2T3 mRNA by RT-PCR (upper panel) and protein by Western blotting (WB; lower panel) expression. […] Expression of GAPDH and β-actin were analyzed as controls. […] GAPDH and beta-actin expression were analyzed as controls. n.s., non-specific. […] Schematic overview of the regions analyzed for DNA methylation (upper panel) and results of bisulfite pyrosequencing in lymphoma/leukemia cell lines and controls (lower panel). […]

KM-H2 cells = test: [3H]-thymidine incorporation in KM-H2 cells after CSF-1 inhibition; settings: 80 μg/ml, pulsed after 24 h
Procedure: FIG. 3. HRS cells depend on CSF1R activity. (A) L540Cy cells were left untreated (−) or treated with the indicated amounts rhCSF-1 (closed bars) or the respective control (open bars) under serum reduced conditions (1% FCS). After 48 hours, cells were pulsed with 1 μCi [^3H]-thymidine per well for a further 20 hours, and [^3H]-thymidine incorporation was determined cpm, counts per minute. Data are represented as mean±SD. (3A) [^3H]-thymidine incorporation in L540Cy cells left untreated (−) or treated with the indicated amounts of rhCSF-1 (black bars) or water control (open bars) under serum-reduced conditions (1% FCS) determined after 48 h. Data are represented as means±s.d. […] After 24 hours, cells were pulsed with [^3H]-thymidine incorporation and analyzed as described in (A). […] CSF1R tyrosine phosphorylation was analyzed as described in FIG. 1F. […]
DNA synthesis was determined by [^3H]-thymidine incorporation assays using standard protocols. The percentage of viable and apoptotic cells was determined by annexin V-FITC/propidium iodide (PI) double-staining (Bender MedSystems) and subsequent FACS analysis.
We determined DNA synthesis by [^3H]-thymidine incorporation assays using standard protocols. In case of L540Cy cells (FIG. 1d), after 48 hours, cells were pulsed with 1 μCi [^3H]-thymidine per well for a further 20 hours, and [^3H]-thymidine incorporation was determined. […]

CSF1R = test: rhCSF1-induced CSF1R tyrosine phosphorylation in DEL cells (IP, immunoblot); settings: preincubation with CSF1R:Fc
Procedure: FIG. 9. (A) Analysis of CSF1 mRNA expression by Northern blot in various cell lines, as indicated. Expression of GAPDH was analyzed as a control. Note, that Hodgkin cell lines overexpress two splice variants compared to control cell lines Reh, Namalwa and BL60, which lack CSF1 expression. (B) To test the functionality of the decoy-receptor-like CSF1R:Fc inhibitor, anaplastic large cell lymphoma derived DEL cells, which show an abundant CSF1R expression (Mathas, S. et al., PNAS 106, 5831-5836 (2009)), were left untreated or stimulated with rhCSF1 with or without preincubation with CSF1R:Fc or the respective IgG1:Fc control. Thereafter, IP was performed with a CSF1R-specific antibody or the respective isotype control (IC), and CSF1R tyrosine phosphorylation was detected by immunoblot with antibody to phospho-tyrosine (p-Tyr; upper panel). As a control, the membrane was reprobed with antibody to CSF1R (lower panel). Note, that CSF1R:Fc prevents rhCSF-1 induced CSF1R phosphorylation.

Compound	induction of canonical and non-canonical CSF1R transcripts [1]	[3H]-thymidine incorporation (KM-H2 cells)	rhCSF-1 induced CSF1R phosphorylation (CSF1R)
Nc1ncn([C@H]2C[C@H](O)[C@@H](CO)O2)c(=O)n1 [Compound 5-aza-dC, 5-aza-2′-deoxycytidine]	weakly induced	–	–
CC(/C=C/C(=O)NO)=C\[C@@H](C)C(=O)c1ccc(N(C)C)cc1 [TSA, Trichostatin A]	weakly induced	–	–
CSF1R:Fc: decoy-receptor-like inhibitor that binds to and neutralizes CSF-1 (329-MR, R&D Systems)	–	strong reduction	prevents

Reference: patent US20120277281A1, “POLYNUCLEOTIDES FOR MEDICAL USE” (MAX-DELBRÜCK-CENTRUM FÜR MOLEKULARE MEDIZIN, priority 2009, published 2012)
